In this assay the test system is Enterobacter cloacae 3MRGN (clinical bronchial aspirate isolate). Description: MIC 50, broth micro-dilution, clinical isolate. Type of assay: cell-based. To be noted: E. Cloacae clinical isolate. From the text:
3.2 Against Selected Bacteria of the ESKAPE Panel and Enterococcus faecalis (DSM Strains)
Tested reference compounds. Amikacin sulfate (Cat. No. 01693, Chem-Impex), Gentamicin sulfate (Cat. No. G4918, Sigma Aldrich).
Microbial strains. Enterococcus faecalis DSM 2570, Klebsiella pneumoniae DSM 26371, Acinetobacter baumannii DSM 105126, Enterobacter cloacae 3MRGN (clinical bronchial aspirate isolate).
Culture media and equipment. BBL™ Mueller Hinton Broth 2 (Lot. BCBW1143, Cat. No. 70192, Sigma); Trypcase Soy Blood-agar plates (Cat. No. 43001, Biomérieux); Cryoinstant (contains 15% glycerol; Cat. No. 822070ZA, VWR International); GasPak™ EZ Standard Incubation Container (Cat. No. 260671, Becton Dickinson); GasPak™ EZ Campy Container System Sachets (Cat. No. 260680, Becton Dickinson); 96-well deep well plate, 1 mL (Cat. No. 0030506.200, Eppendorf); Plate lid (Cat. No. 0030131.525, Eppendorf); 96-well plate, F-bottom (Cat. No. 260860, Nunc); Incubator (Sartorius Certomat BS-1); Laminar flow (Heraeus HS12); UV/VIS meter (Perkin Elmer Lambda Bio+); Platereader (Tecan Infinite M200 Pro).
Compound preparation. Compounds were prepared in MH2 media at a concentration of 5 mM and stored at 4° C. For testing, solutions of 128 μM were prepared in MH2, for tests against E. faecalis a solution of 512 μM was prepared. Out of these working solutions, 400 μL was transferred to wells in the first column of 96-well deep well plates. Each compound was transferred in triplicate. Plates were previously filled with 200 μL of MH2 media in all wells except for the wells in the first column. After compound and antibiotic addition, the compounds were serial two-fold diluted by transferring 200 μL from the first to the second column, then from the second to the third column and so on. Finally, 200 μL was removed from the last column.
Inoculum preparation. Microorganisms used were all revived from 15% glycerol storage in Croinstant tubes at −28° C. by plating them on blood agar plates. A. baumanni, and E. cloacae were grown aerobically at 37° C., E. faecalis was grown microaerophilically at 37° C., and K. pneumoniae was grown aerobically at 37° C. Plates were stored at 4° C. for up to two weeks, after which new plates were prepared from −28° C. A single colony was inoculated in MH2 media and grown at 37° C. and 200 rpm to an optical density (measured by UV/Vis spectroscopy) of 0.6-0.8 at 600 nm. Out of these suspensions, actual inoculums were prepared by diluting them to an optical density of 0.1 in MH2 media. From these inoculums, 200 μL was transferred to each well, resulting in a final compound concentration range of 64 μM-31.3 nM for, K. pneumoniae, A. baumanni, and E. cloacae, and 256 μM-125 nM for E. faecalis. Plates inoculated with E. faecalis were placed inside a GasPak™ Container System with GasPak™ Campy Container System sachets. All plates were incubated at 200 rpm for 18 h under the microorganism culturing conditions mentioned above.
MIC determination. After 18 h of growth, 200 μL was transferred to a 96-well F-bottom plate. The optical density was determined by a plate reader at 600 nm, with 10 s shaking before reading. Triplicate measurements were averaged, and a growth curve was plotted in Excel. The first column in which the growth reached half the value of maximum growth was determined as the MIC50 value for that particular compound.
MIC50. The MIC50 of a compound was assigned at which the bacterial growth reached half the value of maximum growth.

[1] abbreviates: Enterobacter cloacae, read-out: MIC 50.

In brackets after ≈: the same amount, converted by molar mass. Read-outs that look alike come from different tables or passages of the source.

On to `CC(C)(C)CCNC(=N)NC1[C@@H](O)C(OC2[C@@H](F)[C@H](O[C@H]3OC(CN)[C@@H](O)CC3N)C(N)C[C@H]2NC(=O)[C@@H](O)CCN)O[C@H](CO)[C@H]1O` (stereo partly drawn) [ABX5025, Tobra-AHB-F-Gua 2-tBu-ethyl], for which the MIC50 under setting [1] fell in the range of 0.5 to 1 µM (≈ 0.348 to 0.697 µg/mL). Still for that read-out and setting: for `N=C(NC[C@@H]1CNCCO1)NC1[C@@H](O)C(OC2[C@@H](F)[C@H](O[C@H]3OC(CN)[C@@H](O)CC3N)C(N)C[C@H]2NC(=O)[C@@H](O)CCN)O[C@H](CO)[C@H]1O` (stereo partly drawn) [ABX5040, Tobra-AHB-F-Gua (S) morpholin-2-yl methyl] the value was 0.25 µM (≈ 0.178 µg/mL).

In the case of `C[C@@H](N)CCNC(=N)NC1[C@@H](O)C(OC2[C@@H](F)[C@H](O[C@H]3OC(CN)[C@@H](O)CC3N)C(N)C[C@H]2NC(=O)[C@@H](O)CCN)O[C@H](CO)[C@H]1O` (stereo partly drawn) [ABX5047, Tobra-AHB-F-Gua (R) 3-amino-butyl], the MIC50 under setting [1] was in the range of 0.25 to 0.5 µM (≈ 0.171 to 0.342 µg/mL). Same read-out and setting: the value for `N=C(NCCCO)NC1[C@@H](O)C(OC2[C@@H](F)[C@H](O[C@H]3OC(CN)[C@@H](O)CC3N)C(N)C[C@H]2NC(=O)[C@@H](O)CCN)O[C@H](CO)[C@H]1O` (stereo partly drawn) [ABX5041, Tobra-AHB-F-Gua 3-hydroxy-propyl] was 1 µM (≈ 0.671 µg/mL); that for `N=C(NCC1CCCO1)NC1[C@@H](O)C(OC2[C@@H](F)[C@H](O[C@H]3OC(CN)[C@@H](O)CC3N)C(N)C[C@H]2NC(=O)[C@@H](O)CCN)O[C@H](CO)[C@H]1O` (stereo partly drawn) [ABX5046, Tobra-AHB-F-Gua tetrahydrofuran-2-yl methyl] was 1 µM (≈ 0.697 µg/mL). Regarding `NCC[C@H](O)C(=O)N[C@@H]1C[C@H](N)[C@@H](O[C@H]2O[C@H](CN)[C@@H](O)[C@@H](O)[C@H]2O)[C@H](O)[C@H]1O[C@H]1O[C@H](CO)[C@@H](O)[C@H](N)[C@H]1O` [ABX3002, 3′Epi-KanaA-AHB], the “MIC50” value amounted to 16 µM (≈ 9.37 µg/mL).

Consider `N=C(NCCN)NC1C(O)[C@@H](CO)OC(OC2C(F)[C@H](O[C@H]3OC(CN)[C@@H](O)CC3N)C(N)C[C@H]2NC(=O)[C@@H](O)CCN)[C@@H]1O` (stereo partly drawn) [ABX5020, Tobra-AHB-F-Gua-2-amino-ethyl], for which, under setting [1], the MIC50 worked out at 0.5 µM (≈ 0.328 µg/mL). Regarding `N=C(N)N[C@@H]1[C@@H](O)[C@@H](O[C@@H]2[C@@H](O)[C@H](O[C@H]3O[C@H](CN)[C@@H](O)[C@@H](O)[C@H]3N)[C@@H](N)C[C@H]2NC(=O)[C@@H](O)CCN)O[C@H](CO)[C@H]1O` [ABX4005, 3′Epi-KanaB-AHB-Gua], the “MIC50” value lay in the range of 4 to 8 µM.

Take `NCC[C@H](O)C(=O)N[C@@H]1CC(N)[C@@H](O[C@H]2OC(CN)[C@@H](O)CC2N)[C@H](O)C1OC1O[C@H](CO)[C@@H](O)C(N)[C@H]1O` (stereo partly drawn) [ABX5004, Tobra-AHB]: the “MIC50” value amounted to 1 µM (≈ 0.569 µg/mL).

`NCC[C@H](O)C(=O)N[C@@H]1CC(N)[C@@H](O[C@H]2OC(CN)[C@@H](O)CC2N)[C@H](F)C1OC1O[C@H](CO)[C@@H](O)C(N)[C@H]1O` (stereo partly drawn) [ABX5024, Tobra-AHB-F]: the “MIC50” value came out at 1 µM (≈ 0.571 µg/mL). Consider `N=C(NC[C@H]1CNCCO1)NC1[C@@H](O)C(OC2[C@@H](F)[C@H](O[C@H]3OC(CN)[C@@H](O)CC3N)C(N)C[C@H]2NC(=O)[C@@H](O)CCN)O[C@H](CO)[C@H]1O` (stereo partly drawn) [ABX5043, Tobra-AHB-F-Gua (R) morpholin-2-yl methyl], for which the MIC50 under setting [1] stood at 0.25 µM (≈ 0.178 µg/mL).

As to `NCCC(O)C(=O)NC1CC(N)C(OC2OC(CN)C(O)C(O)C2N)C(F)C1OC1OC(CO)C(O)C(N)C1O` (stereo not drawn) [ABX4007, KanaB-AHB-F], the “MIC50” value fell in the range of 1 to 2 µM. For the compound `N=C(NCc1cnc[nH]1)NC1[C@@H](O)C(OC2[C@@H](F)[C@H](O[C@H]3OC(CN)[C@@H](O)CC3N)C(N)C[C@H]2NC(=O)[C@@H](O)CCN)O[C@H](CO)[C@H]1O` (stereo partly drawn) [ABX5050, Tobra-AHB-F-Gua imidazol-5-yl methyl], the MIC50 under setting [1] lay within 1 to 2 µM (≈ 0.693 to 1.39 µg/mL). On to `NCCC(O)C(=O)NC1CC(N)C(OC2OC(CN)C(O)C(O)C2O)C(F)C1OC1OC(CO)C(O)C(N)C1O` (stereo not drawn) [ABX3005, 3′Epi-KanaA-AHB-F], for which the “MIC50” value turned out to be 4 µM (≈ 2.35 µg/mL). On the same count and under the same terms, the value for `N=C(N)NC1[C@@H](O)C(OC2[C@@H](F)[C@H](O[C@H]3OC(CN)[C@@H](O)[C@H](O)C3N)C(N)C[C@H]2NC(=O)[C@@H](O)CCN)O[C@H](CO)[C@H]1O` (stereo partly drawn) [ABX4004, 3′epi-KanaB-AHB-F-Gua] was 1 µM (≈ 0.629 µg/mL); that for `NCCC(O)C(=O)NC1CC(N)C(OC2OC(CN)C(O)C(O)C2N)C(O)C1OC1OC(CO)C(O)C(N)C1O` (stereo not drawn) [ABX4001, KanaB-AHB] was 2 µM (≈ 1.17 µg/mL).

`N=C(N)NC1C(O)[C@@H](CO)OC(OC2C(F)[C@H](O[C@H]3OC(CN)[C@@H](O)CC3N)C(N)C[C@H]2NC(=O)[C@@H](O)CCN)[C@@H]1O` (stereo partly drawn) [ABX5006, Tobra-AHB-F-Gua]: the MIC50 under setting [1] was in the range of 0.25 to 0.5 µM (≈ 0.153 to 0.306 µg/mL). On the same count and under the same terms, for `N=C(NCC1CCOC1)NC1[C@@H](O)C(OC2[C@@H](F)[C@H](O[C@H]3OC(CN)[C@@H](O)CC3N)C(N)C[C@H]2NC(=O)[C@@H](O)CCN)O[C@H](CO)[C@H]1O` (stereo partly drawn) [ABX5051, Tobra-AHB-F-Gua tetrahydrofuran-3-yl methyl] the value was 1 µM (≈ 0.697 µg/mL).

For `NCC[C@H](O)C(=O)N[C@@H]1CC(N)[C@@H](O[C@H]2OC(CN)[C@@H](O)[C@@H](O)C2N)[C@H](F)C1OC1O[C@H](CO)[C@@H](O)C(N)[C@H]1O` (stereo partly drawn) [ABX4003, 3′Epi-KanaB-AHB-F], the “MIC50” value is 4 µM (≈ 2.35 µg/mL). Consider `N=C(NCC1CC1)NC1[C@@H](O)C(OC2[C@@H](F)[C@H](O[C@H]3OC(CN)[C@@H](O)CC3N)C(N)C[C@H]2NC(=O)[C@@H](O)CCN)O[C@H](CO)[C@H]1O` (stereo partly drawn) [ABX5027, Tobra-AHB-F-Gua cyclopropylmethyl], for which, under setting [1], the MIC50 was found to be 0.5 µM (≈ 0.333 µg/mL).

As to `N=C(NC[C@@H]1CCNC1)NC1[C@@H](O)C(OC2[C@@H](F)[C@H](O[C@H]3OC(CN)[C@@H](O)CC3N)C(N)C[C@H]2NC(=O)[C@@H](O)CCN)O[C@H](CO)[C@H]1O` (stereo partly drawn) [ABX5039, Tobra-AHB-F-Gua (R) pyrrolidine-3-ylmethyl], under setting [1], the MIC50 was determined as 0.25 µM (≈ 0.174 µg/mL). The same measure, in the same setting: the value for `CNCCNC(=N)NC1[C@@H](O)C(OC2[C@@H](F)[C@H](O[C@H]3OC(CN)[C@@H](O)CC3N)C(N)C[C@H]2NC(=O)[C@@H](O)CCN)O[C@H](CO)[C@H]1O` (stereo partly drawn) [ABX5038, Tobra-AHB-F-Gua 2-(methylamino)ethyl] was 0.5 µM (≈ 0.335 µg/mL). The same measure, in the same setting: for `N=C(NCc1ccncc1)NC1[C@@H](O)C(OC2[C@@H](F)[C@H](O[C@H]3OC(CN)[C@@H](O)CC3N)C(N)C[C@H]2NC(=O)[C@@H](O)CCN)O[C@H](CO)[C@H]1O` (stereo partly drawn) [ABX5048, Tobra-AHB-F-Gua pyridin-4-yl methyl] the value was 1 µM (≈ 0.704 µg/mL). Regarding `N=C(N)NC1[C@@H](O)C(OC2[C@@H](O)[C@H](O[C@H]3OC(CN)[C@@H](O)CC3N)C(N)C[C@H]2NC(=O)[C@@H](O)CCN)O[C@H](CO)[C@H]1O` (stereo partly drawn) [ABX5005, Tobra-AHB-Gua], the “MIC50” value is 1 µM (≈ 0.611 µg/mL). For the compound `N=C(NCCCN)NC1[C@@H](O)C(OC2[C@@H](F)[C@H](O[C@H]3OC(CN)[C@@H](O)CC3N)C(N)C[C@H]2NC(=O)[C@@H](O)CCN)O[C@H](CO)[C@H]1O` (stereo partly drawn) [ABX5030, Tobra-AHB-F-Gua-3-amino-propyl], under setting [1], the MIC50 worked out at 1 µM (≈ 0.67 µg/mL). The same measure, in the same setting: the value for `N=C(NCCO)NC1[C@@H](O)C(OC2[C@@H](F)[C@H](O[C@H]3OC(CN)[C@@H](O)CC3N)C(N)C[C@H]2NC(=O)[C@@H](O)CCN)O[C@H](CO)[C@H]1O` (stereo partly drawn) [ABX5029, Tobra-AHB-F-Gua 2-hydroxy-ethyl] was 1 µM (≈ 0.657 µg/mL). Same read-out and setting: for `N=C(NC[C@@H]1CCCN1)NC1[C@@H](O)C(OC2[C@@H](F)[C@H](O[C@H]3OC(CN)[C@@H](O)CC3N)C(N)C[C@H]2NC(=O)[C@@H](O)CCN)O[C@H](CO)[C@H]1O` (stereo partly drawn) [ABX5026, Tobra-AHB-F-Gua (S) pyrrolidine-2-yl-methyl] the value was 0.25 µM (≈ 0.174 µg/mL).
